Source: patent US11433014B2, “Polyol polyrhamnosides, process for the preparation thereof, and cosmetic and/or pharmaceutical composition comprising same” (SOCIETE D'EXPLOITATION DE PRODUITS POUR LES INDUSTRIES …, priority 2017, dated 2022)
Values joined by “and” are separate entries in the source; they are usually repeats but may differ in a detail not shown here. Equal values may be shown once.

Test system: Normal human fibroblasts
Assay: Production of hyaluronic acid on human fibroblast cultures
Assay type: cell-based
Conditions: EGF 10 ng/ml (positive reference), 72-hour incubation
Procedure: B)—Evaluation of the Moisturizing Effect of the Compositions According to the Invention—Measurement of the Production of Hyaluronic Acid on Human Fibroblast Cultures:
Normal human fibroblasts are seeded and cultured in 96-well plates in 10% FCS (fetal calf serum) culture medium, at 37° C. in a humid atmosphere containing 5% CO2. […] Each condition is performed in n=4. At the end of a 72-hour incubation, the amount of hyaluronic acid excreted into the culture supernatant is measured using a specific assay kit (Hyaluronan Duo Set Assay Development Kit—Biotechne); and the amount of protein present in the cell lawns is measured using the BC Assay kit (Interchim). The amount of hyaluronic acid assayed is then expressed relative to the amount of protein per well. Means and standard deviations are calculated per condition and the level of hyaluronic acid production is evaluated by comparing the test conditions with the control condition (untreated cells).

## EGF: epidermal growth factor, the positive reference for the model
Culture supernatant, n=4
  Amount of hyaluronic acid produced, Mean: 32.29 ng/μg protein and 25.28 ng/μg protein
Vs untreated cells
  Amount of hyaluronic acid produced, Difference relative to the control: 164%
